Laboratory results: patent US9850225B2, “Compounds useful as immunomodulators” (BRISTOL-MYERS SQUIBB COMPANY, priority 2014, dated 2017)

Each compound was assayed against PD-1/PD-L1 interaction (PD-1-Ig / PD-L1-His) (Homo sapiens (Human), UniProt Q9NZQ7) (assay: PD-1/PD-L1 Homogenous Time-Resolved Fluorescence (HTRF) binding assay). Conditions: PD-1/PD-L1 HTRF binding assay; numeric value; read-out: Range or IC50.
Sequence of PD-1/PD-L1 interaction (PD-1-Ig / PD-L1-His) (Q9NZQ7 other isoform, or with tags, fused parts or gaps): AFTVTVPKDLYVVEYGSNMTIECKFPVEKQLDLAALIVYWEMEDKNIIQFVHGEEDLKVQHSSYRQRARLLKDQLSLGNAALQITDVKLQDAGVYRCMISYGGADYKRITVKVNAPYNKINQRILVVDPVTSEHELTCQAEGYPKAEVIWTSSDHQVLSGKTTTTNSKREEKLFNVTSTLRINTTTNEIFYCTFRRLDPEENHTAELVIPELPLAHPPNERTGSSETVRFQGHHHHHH
Method in brief: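 Human PD-L1-His (10 nM final) was pre-incubated with inhibitor for 15 min, then PD-1-Ig (20 nM final) was added for a further 15 min in dPBS with 0.1% BSA and 0.05% Tween-20. Binding was detected by HTRF using Eu-cryptate anti-Ig (1 nM) and APC anti-His (20 nM).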
For Cc1c(COc2cc(OCc3cncc(C#N)c3)c(CN[C@@H](Cc3cccnc3)C(=O)O)cc2Cl)cccc1-c1ccc2c(c1)OCCO2 [Example 2010, (S)-2-((5-chloro-2-((5-cyanopyridin-3-yl)methoxy)-4-((3-(2,3-dihydrobenzo[b][1,4]dioxin-6-yl)-2-methylbenzyl)oxy)benzyl)amino)-3-(pyridin-3-yl)propanoic acid], the IC50 was 50 nM.

Same assay, conditions: PD-1/PD-L1 HTRF binding assay; value given as range class; read-out: Range or IC50
In the case of CC(=O)NCCNCc1ccc(OCc2cccc(-c3ccccc3)c2C)cc1OCc1cc(C(F)(F)F)ccc1F [Example 1080, N-(2-((2-((2-fluoro-5-(trifluoromethyl)benzyl)oxy)-4-((2-methyl-[1,1′-biphenyl]-3-yl)methoxy)benzyl)amino)ethyl)acetamide], the IC50 is reported as 100 to 20000 nM.
Cc1c(COc2ccc(CN[C@H](CO)C(=O)O)c(OCc3cccc(C#N)c3)c2)cccc1-c1ccc2c(c1)OCCO2 [Example 1122, (R)-2-(2-(3-cyanobenzyloxy)-4-(3-(2,3-dihydrobenzo[b][1,4]dioxin-6-yl)-2-methylbenzyloxy)benzylamino)-3-hydroxypropanoic acid] showed an IC50 of 0.6 to 10 nM.
In the case of Cc1cc(CN2CCCC[C@H]2C(=O)O)c(OCc2cccc(C#N)c2)cc1OCc1cccc(-c2ccc3c(c2)OCCO3)c1C [Example 1268, (S)-1-(2-((3-cyanobenzyl)oxy)-4-((3-(2,3-dihydrobenzo[b][1,4]dioxin-6-yl)-2-methylbenzyl)oxy)-5-methylbenzyl)piperidine-2-carboxylic acid], the IC50 is reported as 0.6 to 10 nM.
With Cc1cc(OCc2cccc(-c3ccc4c(c3)OCCO4)c2C)cc(OCc2cncc(C#N)c2)c1CN1CCCC[C@H]1C(=O)O [Example 1009, (S)-1-(2-((5-cyanopyridin-3-yl)methoxy)-4-(3-(2,3-dihydrobenzo[b][1,4]dioxin-6-yl)-2-methylbenzyloxy)-6-methylbenzyl)piperidine-2-carboxylic acid] the IC50 was 0.6 to 10 nM.
With CC(=O)NCCNCc1cc(Cl)c(OCc2cccc(-c3ccc4c(c3)OCCO4)c2C)cc1OCc1cncc(C#N)c1 [Example 1251, N-(2-((5-chloro-2-((5-cyanopyridin-3-yl)methoxy)-4-((3-(2,3-dihydrobenzo[b][1,4]dioxin-6-yl)-2-methylbenzyl)oxy)benzyl)amino)ethyl)acetamide] the IC50 was 0.6 to 10 nM.
For CC(=O)NCCNCc1ccc(OCc2cccc(-c3ccccc3)c2C)cc1OCc1ccccc1S(C)(=O)=O [Example 1041, N-(2-((4-((2-methyl-[1,1′-biphenyl]-3-yl)methoxy)-2-((2-(methylsulfonyl)benzyl)oxy)benzyl)amino)ethyl)acetamide], the IC50 was 100 to 20000 nM.
Compound Cc1c(COc2cc(OCC(N)=O)c(CN[C@@H](CO)C(=O)O)cc2Cl)cccc1-c1ccc2c(c1)OCCO2 [Example 3030, (S)-2-((2-(2-amino-2-oxoethoxy)-5-chloro-4-((3-(2,3-dihydrobenzo[b][1,4]dioxin-6-yl)-2-methylbenzyl)oxy)benzyl)amino)-3-hydroxypropanoic acid] has an IC50 of 0.6 to 10 nM.
Work on Cc1c(COc2cc(OCc3cncc(C#N)c3)c(CN3CCCC[C@H]3C(=O)NS(=O)(=O)N3CCN(C)CC3)cc2Cl)cccc1-c1ccc2c(c1)OCCO2 [Example 1262, (S)-1-(5-chloro-2-((5-cyanopyridin-3-yl)methoxy)-4-((3-(2,3-dihydrobenzo[b][1,4]dioxin-6-yl)-2-methylbenzyl)oxy)benzyl)-N-((4-methylpiperazin-1-yl)sulfonyl)piperidine-2-carboxamide] yielded an IC50 of 10 to 100 nM.
In the case of Cc1c(COc2cc(OCc3cccc(C#N)c3)c(CN[C@@H](CCCCN(C)C)C(=O)O)cc2Cl)cccc1-c1ccc2c(c1)OCCO2 [Example 1173, (S)-2-((5-chloro-2-((3-cyanobenzyl)oxy)-4-((3-(2,3-dihydrobenzo[b][1,4]dioxin-6-yl)-2-methylbenzyl)oxy)benzyl)amino)-6-(dimethylamino)hexanoic acid], the IC50 is reported as 0.6 to 10 nM.
For Cc1c(COc2cc(OCc3cncc(C#N)c3)c(CN3CCCC[C@H]3C(=O)NS(=O)(=O)C(F)(F)F)cc2Cl)cccc1-c1ccc2c(c1)OCCO2 [Example 1258, (S)-1-(5-chloro-2-((5-cyanopyridin-3-yl)methoxy)-4-((3-(2,3-dihydrobenzo[b][1,4]dioxin-6-yl)-2-methylbenzyl)oxy)benzyl)-N-((trifluoromethyl)sulfonyl)piperidine-2-carboxamide], the IC50 was 10 to 100 nM.
Compound Cc1c(COc2ccc(CN3CCCC[C@H]3C(=O)O)c(OCc3cncc(C#N)c3)c2)cccc1-c1ccccc1 [Example 1329, (S)-1-(2-((5-cyanopyridin-3-yl)methoxy)-4-((2-methyl-[1,1′-biphenyl]-3-yl)methoxy)benzyl)piperidine-2-carboxylic acid] has an IC50 of 0.6 to 10 nM.
CC(=O)NCCNCc1ccc(OCc2cccc(-c3ccccc3)c2C)cc1OCc1cccc(Cl)c1 [Example 1054, N-(2-((2-((3-chlorobenzyl)oxy)-4-((2-methyl-[1,1′-biphenyl]-3-yl)methoxy)benzyl)amino)ethyl)acetamide] gave an IC50 of 100 to 20000 nM.
With COc1cc(OCc2cccc(-c3ccc4c(c3)OCCO4)c2C)cc(OCc2cccc(C#N)c2)c1CN[C@@H](CO)C(=O)O [Example 1141, (S)-2-((2-((3-cyanobenzyl)oxy)-4-((3-(2,3-dihydrobenzo[b][1,4]dioxin-6-yl)-2-methylbenzyl)oxy)-6-methoxybenzyl)amino)-3-hydroxypropanoic acid] the IC50 was 0.6 to 10 nM.
With CCOC(=O)Nc1cncc(COc2cc(OCc3cccc(-c4ccc5c(c4)OCCO5)c3C)c(Cl)cc2CN[C@@](C)(CO)C(=O)O)c1 [Example 3009, (S)-2-((5-chloro-4-((3-(2,3-dihydrobenzo[b][1,4]dioxin-6-yl)-2-methylbenzyl)oxy)-2-((5-((ethoxycarbonyl)amino)pyridin-3-yl)methoxy)benzyl)amino)-3-hydroxy-2-methylpropanoic acid] the IC50 was 0.6 to 10 nM.
Compound Cc1c(COc2cc(OCc3cccc(C#N)c3)c(CN3CCCC[C@H]3C(=O)O)cc2Cl)cccc1-c1ccc2c(c1)OCCO2 [Example 1230, (S)-1-(5-chloro-2-((3-cyanobenzyl)oxy)-4-((3-(2,3-dihydrobenzo[b][1,4]dioxin-6-yl)-2-methylbenzyl)oxy)benzyl)piperidine-2-carboxylic acid] has an IC50 of 0.6 to 10 nM.
Cc1cc(CN[C@](C)(CO)C(=O)O)c(OCc2cncc(C#N)c2)cc1OCc1cccc(-c2ccc3c(c2)OCCO3)c1C#N [Example 1311, (R)-2-(4-(2-cyano-3-(2,3-dihydrobenzo[b][1,4]dioxin-6-yl)benzyloxy)-2-((5-cyanopyridin-3-yl)methoxy)-5-methylbenzylamino)-3-hydroxy-2-methylpropanoic acid] showed an IC50 of 0.6 to 10 nM.
In the case of Cc1c(COc2cc(OCc3cccc(C#N)c3)c(CN[C@H](C)C(=O)O)cc2Cl)cccc1-c1ccc2c(c1)OCCO2 [Example 1169, (R)-2-((5-chloro-2-((3-cyanobenzyl)oxy)-4-((3-(2,3-dihydrobenzo[b][1,4]dioxin-6-yl)-2-methylbenzyl)oxy)benzyl)amino)propanoic acid], the IC50 is reported as 0.6 to 10 nM.
Work on CC(=O)NCCNCc1ccc(OCc2cccc(-c3ccccc3)c2C)cc1OCc1ccc(C(C)(C)C)cc1 [Example 1046, N-(2-((2-((4-(tert-butyl)benzyl)oxy)-4-((2-methyl-[1,1′-biphenyl]-3-yl)methoxy)benzyl)amino)ethyl)acetamide] yielded an IC50 of 100 to 20000 nM.
In the case of CC(=O)NCCNCc1ccc(OCc2cccc(-c3ccccc3)c2C)cc1OCc1ccc(C(N)=O)cc1 [Example 1039], the IC50 is reported as 100 to 20000 nM.
